# Laboratory results as given in patent publication US20240018161A1, “MODULATORS OF CYSTIC FIBROSIS TRANSMEMBRANE CONDUCTANCE REGULATOR” (VERTEX PHARMACEUTICALS INCORPORATED, priority 2020, published 2024).
# Biological target: T1, CFTR-mediated short-circuit current in F508del/MF-HBE cells (Homo sapiens, UniProt P13569, DEL508-508)
# T1 construct: human bronchial epithelial (HBE) cells derived from CF subjects; endogenous in cells; host or cells: primary human bronchial epithelial cells from CF subjects (F508del/MF-HBE)
# T1 sequence (P13569 with tags, fused parts or gaps DEL508-508): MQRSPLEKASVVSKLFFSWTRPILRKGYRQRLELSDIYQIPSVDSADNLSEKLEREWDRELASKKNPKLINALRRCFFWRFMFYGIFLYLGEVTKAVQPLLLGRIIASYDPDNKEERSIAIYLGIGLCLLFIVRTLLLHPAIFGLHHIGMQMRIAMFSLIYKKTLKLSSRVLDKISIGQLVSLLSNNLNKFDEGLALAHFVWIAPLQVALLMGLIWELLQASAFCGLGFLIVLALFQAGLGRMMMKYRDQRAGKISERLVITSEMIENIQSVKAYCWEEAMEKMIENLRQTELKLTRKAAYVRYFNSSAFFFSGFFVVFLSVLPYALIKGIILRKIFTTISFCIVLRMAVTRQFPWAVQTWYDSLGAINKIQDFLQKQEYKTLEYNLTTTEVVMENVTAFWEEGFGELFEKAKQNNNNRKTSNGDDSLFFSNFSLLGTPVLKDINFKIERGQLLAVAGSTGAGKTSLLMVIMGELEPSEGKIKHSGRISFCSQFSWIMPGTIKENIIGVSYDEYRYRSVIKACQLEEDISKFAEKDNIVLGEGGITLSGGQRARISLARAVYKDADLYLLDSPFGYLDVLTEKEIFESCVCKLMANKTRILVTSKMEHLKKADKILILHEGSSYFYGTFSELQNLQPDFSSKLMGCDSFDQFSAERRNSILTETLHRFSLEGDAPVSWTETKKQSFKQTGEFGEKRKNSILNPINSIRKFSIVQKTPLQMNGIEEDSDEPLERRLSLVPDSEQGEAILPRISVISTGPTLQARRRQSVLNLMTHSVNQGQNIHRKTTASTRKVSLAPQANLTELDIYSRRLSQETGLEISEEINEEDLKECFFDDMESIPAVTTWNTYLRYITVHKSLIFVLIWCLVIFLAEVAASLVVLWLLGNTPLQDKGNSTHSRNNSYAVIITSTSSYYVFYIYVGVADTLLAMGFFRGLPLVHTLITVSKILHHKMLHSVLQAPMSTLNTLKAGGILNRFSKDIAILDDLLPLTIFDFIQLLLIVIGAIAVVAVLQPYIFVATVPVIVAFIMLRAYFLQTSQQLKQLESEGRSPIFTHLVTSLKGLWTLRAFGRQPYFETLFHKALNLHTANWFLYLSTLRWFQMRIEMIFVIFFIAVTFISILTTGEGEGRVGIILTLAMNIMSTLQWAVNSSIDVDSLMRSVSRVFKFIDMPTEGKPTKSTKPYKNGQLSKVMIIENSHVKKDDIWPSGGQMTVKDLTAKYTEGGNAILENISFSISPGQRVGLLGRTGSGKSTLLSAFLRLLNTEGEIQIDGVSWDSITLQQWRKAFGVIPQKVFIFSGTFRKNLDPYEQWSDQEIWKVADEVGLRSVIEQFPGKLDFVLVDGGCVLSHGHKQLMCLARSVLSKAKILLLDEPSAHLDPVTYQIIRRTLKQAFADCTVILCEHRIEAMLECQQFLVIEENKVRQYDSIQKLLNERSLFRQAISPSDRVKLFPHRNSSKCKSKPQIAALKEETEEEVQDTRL
# Test: HBE2 assay: Ussing chamber assay of CFTR-mediated short-circuit currents
# Type: cell-based
# Description: 1. Ussing Chamber Assay of CFTR-Mediated Short-Circuit Currents
# Ussing chamber experiments were performed using human bronchial epithelial (HBE) cells derived from CF subjects heterozygous for F508del and a minimal function CFTR mutation (F508del/MF-HBE) and cultured as previously described (Neuberger T, Burton B, Clark H, Van Goor F Methods Mol Biol 2011:741:39-54). After four days the apical media was removed, and the cells were grown at an air liquid interface for >14 days prior to use.
# To isolate the CFTR-mediated short-circuit (ISC) current, F508del/MF-HBE grown on Costar® Snapwell™ cell culture inserts were mounted in an Ussing chamber and the transepithelial ISC was measured under voltage-clamp recording conditions (Vhold=0 mV) at 37° C. The basolateral solution contained (in mM) 145 NaCl, 0.83 K2HPO4, 3.3 KH2PO4, 1.2 MgCl2, 1.2 CaCl2, 10 Glucose, 10 HEPES (pH adjusted to 7.4 with NaOH) and the apical solution contained (in mM) 145 NaGluconate, 1.2 MgCl2, 1.2 CaCl2, 10 glucose, 10 HEPES (pH adjusted to 7.4 with NaOH) and 30 μM amiloride to block the epithelial sodium channel. Forskolin (20 μM) was added to the apical surface to activate CFTR, followed by apical addition of a CFTR inhibitor cocktail consisting of BPO, GlyH-101, and CFTR inhibitor 172 (each at 20 μM final assay concentration) to specifically isolate CFTR currents. The CFTR-mediated ISC (μA/cm^2) for each condition was determined from the peak forskolin response to the steady-state current following inhibition.
# 2. Identification of Corrector Compounds
# The activity of the CFTR corrector compounds on the CFTR-mediated ISC was determined in Ussing chamber studies as described above. The F508del/MF-HBE cell cultures were either incubated with the corrector compounds at a range of concentrations in combination with 44 nM (6R,12R)-17-amino-12-methyl-6,15-bis(trifluoromethyl)-13,19-dioxa-3,4,18-triazatricyclo[12.3.1.12,5]nonadeca-1(18),2,4,14,16-pentaen-6-ol or were incubated with the corrector compounds at a single fixed concentration of 1 and 3 μM in combination with 44 nM (6R,12R)-17-amino-12-methyl-6,15-bis(trifluoromethyl)-13,19-dioxa-3,4,18-triazatricyclo[12.3.1.12,5]nonadeca-1(18),2,4,14,16-pentaen-6-ol for 18-24 hours at 37° C. and in the presence of […]. The concentration of corrector compounds with 44 nM (6R,12R)-17-amino-12-methyl-6,15-bis(trifluoromethyl)-13,19-dioxa-3,4,18-triazatricyclo[12.3.1.12,5]nonadeca-1(18),2,4,14,16-pentaen-6-ol during the 18-24 hours incubations was kept constant throughout the Ussing chamber measurement of the CFTR-mediated ISC to ensure compounds were present throughout the entire experiment.
Compound,HBE2 Activity at 3 μM (%),activation at 3 µM
"Cc1cccc(C)c1-c1cc2nc(n1)NS(=O)(=O)c1cccc(c1)C(=O)N1[C@@H](c3ncc(OC(C)C)cn3)CCC[C@@H](CC(C)C)[C@H]1CO2 (single isomer, unassigned) [Compound 399, 14-(2,6-dimethylphenyl)-8-isobutyl-4-(5-isopropoxypyrimidin-2-yl)-18,18-dioxo-11-oxa-18λ^6-thia-3,15,17,24-tetrazatetracyclo[17.3.1.112,16.03,9]tetracosa-1(22),12,14,16(24),19(23),20-hexaen-2-one]",+ (+ is <30+),–
"Cc1cccc(C)c1-c1cc2nc(n1)NS(=O)(=O)c1cccc(c1)C(=O)N1[C@@H](c3cncc(N(C)C4CCC4)n3)CCC[C@@H](CC(C)C)[C@H]1CO2 (single isomer, unassigned) [Compound 400, 4-[6-[Cyclobutyl(methyl)amino]pyrazin-2-yl]-14-(2,6-dimethylphenyl)-8-isobutyl-18,18-dioxo-11-oxa-18λ^6-thia-3,15,17,24-tetrazatetracyclo[17.3.1.112,16.03,9]tetracosa-1(22),12,14,16(24),19(23),20-hexaen-2-one]",+++ (+++ is >60%),–
"Cc1cccc(C)c1-c1cc2nc(n1)NS(=O)(=O)c1cccc(c1)C(=O)N1[C@@H](c3cncc(N(C)C4CCC4)n3)CCC[C@@H](CC(C)C)[C@H]1CO2 (single isomer, unassigned) [Compound 401, 4-[6-[cyclobutyl(methyl)amino]pyrazin-2-yl]-14-(2,6-dimethylphenyl)-8-isobutyl-18,18-dioxo-11-oxa-18λ^6-thia-3,15,17,24-tetrazatetracyclo[17.3.1.112,16.03,9]tetracosa-1(22),12,14,16(24),19(23),20-hexaen-2-one]",++ (++ is 30-60%),–
"Cc1cccc(C)c1-c1cc2nc(n1)NS(=O)(=O)c1cccc(c1)C(=O)N1[C@@H](c3cncc(N(C)C4CCC4)n3)CCC[C@@H](CC(C)C)[C@H]1CO2 (single isomer, unassigned) [Compound 402, 4-[6-[Cyclobutyl(methyl)amino]pyrazin-2-yl]-14-(2,6-dimethylphenyl)-8-isobutyl-18,18-dioxo-11-oxa-18λ^6-thia-3,15,17,24-tetrazatetracyclo[17.3.1.112,16.03,9]tetracosa-1(22),12,14,16(24),19(23),20-hexaen-2-one]",+++ (+++ is >60%),–
"Cc1cccc(C)c1-c1cc2nc(n1)NS(=O)(=O)c1cccc(c1)C(=O)N1[C@@H](c3cncc(N(C)C4CCC4)n3)CCC(O2)[C@H]1CC(C)C (single isomer, unassigned) [Compound 410]",–,> 60%
"Cc1cccc(C)c1-c1cc2nc(n1)NS(=O)(=O)c1cccc(c1)C(=O)N1[C@@H](c3cncc(N(C)C4CCC4)n3)CC[C@H](O2)[C@H]1CC(C)C (single isomer, unassigned) [Compound 411]",–,30 to 60%
Cc1cccc(C)c1-c1cc2nc(n1)NS(=O)(=O)c1cccc(c1)C(=O)N1[C@H](CCC[C@@H]1C(=O)NCc1ccccc1)CO2 [Compound 415],–,30 to 60%
Cc1cccc(C)c1-c1cc2nc(n1)NS(=O)(=O)c1cccc(c1)C(=O)N1C[C@@H](CCCC[C@@H]1c1ncc(OCc3ccccc3)cn1)O2 [Compound 416],–,30 to 60%
Cc1cccc(C)c1-c1cc2nc(n1)NS(=O)(=O)c1cccc(c1)C(=O)N1C[C@@H](CCCC[C@@H]1c1ncc(OCc3ccccc3)cn1)O2 [Compound 417],+ (+ is <30+),–
Cc1cccc(C)c1-c1cc2nc(n1)NS(=O)(=O)c1cccc(c1)C(=O)N1[C@@H](CCCC[C@@H]1c1ncc(OCc3ccccc3)cn1)CO2 [Compound 419],–,30 to 60%
Cc1cccc(C)c1-c1cc2nc(n1)NS(=O)(=O)c1cccc(c1)C(=O)N1[C@@H](CCCC[C@@H]1c1ncc(OCc3ccccc3)cn1)CO2 [Compound 420],+ (+ is <30+),–

# Continued, values first:
HBE2 Activity at 3 μM (%),activation at 3 µM,Compound
++ (++ is 30-60%),–,"Cc1cccc(C)c1-c1cc2nc(n1)NS(=O)(=O)c1cccc(c1)C(=O)N1[C@@H](c3ncc(OC(C)C)cn3)CCC[C@@H](O2)[C@H]1CC(C)C (single isomer, unassigned) [Compound 404, 12-(2,6-dimethylphenyl)-21-isobutyl-20-(5-isopropoxypyrimidin-2-yl)-8,8-dioxo-15-oxa-8λ^6-thia-1,9,11,22-tetrazatetracyclo[14.4.1.13,7.110,14]tricosa-3,5,7(23),10(22),11,13-hexaen-2-one]"
+++ (+++ is >60%),–,"Cc1cccc(C)c1-c1cc2nc(n1)NS(=O)(=O)c1cccc(c1)C(=O)N1[C@@H](c3ncc(OC(C)C)cn3)CCC[C@@H](O2)[C@H]1CC(C)C (single isomer, unassigned) [Compound 405, 12-(2,6-Dimethylphenyl)-21-isobutyl-20-(5-isopropoxypyrimidin-2-yl)-8,8-dioxo-15-oxa-8λ^6-thia-1,9,11,22-tetrazatetracyclo[14.4.1.13,7.110,14]tricosa-3,5,7(23),10(22),11,13-hexaen-2-one]"
+++ (+++ is >60%),–,"Cc1cccc(C)c1-c1cc2nc(n1)NS(=O)(=O)c1cccc(c1)C(=O)N1[C@@H](c3ncc(OC(C)C)cn3)CCC[C@@H](O2)[C@H]1CC(C)C (single isomer, unassigned) [Compound 406, 12-(2,6-Dimethylphenyl)-21-isobutyl-20-(5-isopropoxypyrimidin-2-yl)-8,8-dioxo-15-oxa-8λ^6-thia-1,9,11,22-tetrazatetracyclo[14.4.1.13,7.110,14]tricosa-3,5,7(23),10(22),11,13-hexaen-2-one]"
+ (+ is <30+),–,"Cc1cccc(C)c1-c1cc2nc(n1)NS(=O)(=O)c1cccc(c1)C(=O)N1[C@@H](c3ncc(OC(C)C)cn3)CCC[C@@H](O2)[C@H]1CC(C)C (single isomer, unassigned) [Compound 407, 12-(2,6-dimethylphenyl)-21-isobutyl-20-(5-isopropoxypyrimidin-2-yl)-8,8-dioxo-15-oxa-8λ^6-thia-1,9,11,22-tetrazatetracyclo[14.4.1.13,7.110,14]tricosa-3,5,7(23),10(22),11,13-hexaen-2-one]"
+++ (+++ is >60%),–,"Cc1cccc(C)c1-c1cc2nc(n1)NS(=O)(=O)c1cccc(c1)C(=O)N1[C@@H](c3ncc(OC(C)C)cn3)CCC[C@@H](O2)[C@H]1CC(C)C (single isomer, unassigned) [Compound 408, 12-(2,6-Dimethylphenyl)-21-isobutyl-20-(5-isopropoxypyrimidin-2-yl)-8,8-dioxo-15-oxa-8λ^6-thia-1,9,11,22-tetrazatetracyclo[14.4.1.13,7.110,14]tricosa-3,5,7(23),10(22),11,13-hexaen-2-one]"
+ (+ is <30+),–,"Cc1cccc(C)c1-c1cc2nc(n1)NS(=O)(=O)c1cccc(c1)C(=O)N1[C@@H](c3ncc(OC(C)C)cn3)CCC[C@@H](O2)[C@H]1CC(C)C (single isomer, unassigned) [Compound 409, 12-(2,6-dimethylphenyl)-21-isobutyl-20-(5-isopropoxypyrimidin-2-yl)-8,8-dioxo-15-oxa-8λ^6-thia-1,9,11,22-tetrazatetracyclo[14.4.1.13,7.110,14]tricosa-3,5,7(23),10(22),11,13-hexaen-2-one]"
–,< 30%,Cc1cccc(C)c1-c1cc2nc(n1)NS(=O)(=O)c1cccc(c1)C(=O)N1[C@@H](c3ncc(OC(C)C)cn3)CC[C@@H](O2)[C@H]1CC(C)C [Compound 418]
+++ (+++ is >60%),–,Cc1cccc(C)c1-c1cc2nc(n1)NS(=O)(=O)c1cccc(c1)C(=O)N1[C@@H](c3ncc(OC(C)C)cn3)CCC[C@@H](O2)[C@H]1CC(C)C [Compound 421]
+ (+ is <30+),–,Cc1cccc(C)c1-c1cc2nc(n1)NS(=O)(=O)c1cccc(c1)C(=O)N1[C@@H](c3ncc(OC(C)C)cn3)CCC[C@@H](O2)[C@H]1CC(C)C [Compound 422]
–,30 to 60%,Cc1cccc(C)c1-c1cc2nc(n1)NS(=O)(=O)c1cccc(c1)C(=O)N1[C@@H](c3ncc(OC(C)C)cn3)CCC[C@H]1[C@H](CC(C)C)O2 [Compound 423]
–,30 to 60%,Cc1cccc(C)c1-c1cc2nc(n1)NS(=O)(=O)c1cccc(c1)C(=O)N1[C@@H](c3ncc(OC(C)C)cn3)CCC[C@H]1[C@@H](CC(C)C)O2 [Compound 424]
